Reference: PubChem BioAssay AID179 (DTP/NCI, 2004)
Calls of active or inactive are those of the source.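 The calls were made as follows: active = compounds giving half or more protection of infected cells from virus-caused growth loss, again on retest; inactive = the rest.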 Where a SMILES comes first, the peptide text is derived from it.

Tested on: CEM cells HIV-1 protection, formazan growth assay
Test: NCI AIDS Antiviral Assay
Settings: for IC50: measured here: growth of uninfected CEM cells
Procedure, shortened: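 Soluble formazan readout of cell growth; CEM cells ± HIV-1; 5 drug concs. ≥50% protection → retest; ≥50% again = moderately active; reproducible 100% = confirmed active.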

SMILES | EC50 | IC50 | outcome
N[C@H](CCOc1ccc(/C(=N/O)C(=O)N[C@H]2CN([C@@H](C(=O)O)c3ccc(O)cc3)C2=O)cc1)C(=O)O | > 200 µM | > 200 µM | –
Cn1ccoc1=Nc1ccc(Cl)c(Cl)c1 | > 200 µM | > 200 µM | –
COC(=O)C(C(=O)C(=O)Nc1nc2ccc([N+](=O)[O-])cc2s1)c1nc2ccc(Cl)cc2[nH]c1=O (configuration not stated) | > 51.3 µM | > 51.3 µM | –
N#CC(C(=S)Nc1ccccc1)=C1Nc2ccccc2N1 | > 200 µM | > 200 µM | –
CC(C)OCC(O)COc1ccc2ccc(=O)oc2c1 (configuration not stated) | > 200 µM | > 200 µM | –
Cc1ccc(S(=O)(=O)n2oc(=O)c(-c3ccccc3)c2N)cc1 | > 200 µM | 55 µM | –
COc1c(OC)c(OC)c2c(=O)cc(-c3ccc4c(c3)OCO4)oc2c1OC | > 200 µM | > 200 µM | –
CN1CCCCCCC1CO (configuration not stated) | – | – | inactive
CCCCCCCCCCCCSS(=O)(=O)c1ccc(C)cc1 | > 20.4 µM | 13.8 µM | –
O=C1C=C/C(=C/C(O)COC(=O)c2ccccc2)O1 (configuration not stated) | > 138 µM | 77.6 µM | –
O=C(Nc1ccccc1)c1cc(S(=O)(=O)Nc2n[nH]c(=O)n2-c2ccccc2)c(S)cc1Cl | 89.1 µM | > 200 µM | –
CC1c2c(cc(=O)n(Cc3ccccc3)c2O)C(=O)N1Cc1ccccc1 (configuration not stated) | > 72.4 µM | 61.7 µM | –
CC(=O)Nc1ccc(-c2nnc(SCC(=O)Nc3cccc(Cl)c3)o2)cc1 | > 46.8 µM | 7.59 µM | –
C[C@@H]1C[C@@H](O)[C@@]2(O)C13CC(=O)OC(C3)[C@@H](C)[C@@]2(C)CO (some centres not stated) | > 200 µM | > 200 µM | –
NC(=O)CNC(=O)c1ccccc1SC(=O)OCCCCCl | 26.3 µM | > 200 µM | –
COC(=O)/C(C#N)=C1\N=NNN1CCCc1ccccc1 | – | – | inactive
CC1c2c(cc(=O)[nH]c2O)C(=O)N1C (configuration not stated) | > 245 µM | > 245 µM | –
CCOC(=O)c1ccc(CS(=O)(=O)c2ccc(N)cc2)c([N+](=O)[O-])c1 | > 100 µM | > 100 µM | –
CC(C)N=C(N)CSS(=O)(=O)O | > 200 µM | > 200 µM | –
CC(C)=CC1CC(n2cc(C)c(=O)[nH]c2=O)ON1CCO (configuration not stated) | > 200 µM | > 200 µM | –
CO[C@@]12CC(=O)/C(=C(O)\C=C\c3ccccc3)C(=O)[C@]1(OC)Cc1ccccc1O2 | > 17.8 µM | 15.5 µM | –
CCOC(=O)CCC1(C)OC[C@H]2OC(n3cc(C)c(=O)[nH]c3=O)C[C@H]2N1O (some centres not stated) | > 200 µM | > 200 µM | –

SMILES | EC50 | IC50 | outcome
FC(F)(F)c1ccccc1C=NC12CC3CC(CC(C3)C1)C2 | > 30.9 µM | > 30.9 µM | –
CC(=O)O[C@H]1C(=O)[C@@]2(C)[C@H]([C@H](OC(=O)c3ccccc3)[C@]3(O)C[C@H](OC(=O)[C@H](O)[C@@H](NC(=O)c4ccccc4)c4ccccc4)C(C)=C1C3(C)C)[C@]1(OC(C)=O)CO[C@@H]1C[C@@H]2O | > 0.417 µM | 0.0135 µM | –
COC(=O)c1cn2ccc3ccccc3c2c1C(=O)OC | > 200 µM | > 100 µM | –
N#Cc1cc2c(n(NS(=O)(=O)c3ccccc3)c1=O)CCCCC2 | > 200 µM | > 200 µM | –
O=C(CNc1ccc(Cl)cc1Cl)NC1C=Cc2ccc(S(=O)(=O)Nc3ccc(Cl)cc3Cl)cc2C1=O (configuration not stated) | > 200 µM | > 200 µM | –
Cc1ccc(C)n1-n1c2ccccc2c2ccccc21 | > 100 µM | > 100 µM | –
COC(=O)/C(=N\NC(N)=O)C(C(=O)C=C(C)C)C(=O)C(=O)Nc1ccc(Cl)c(Cl)c1 (configuration not stated) | > 550 µM | 457 µM | –
Cc1ccc(C(=O)OC(C)C)cc1N=NN(C)C | > 55 µM | > 55 µM | –
CCCCCCCCCc1cc(=O)c2ccc(OCc3ccccc3)cc2o1 | > 2.75 µM | > 2.75 µM | –
Cc1ccc(S(=O)(=O)c2ccc(NC(=O)SCCC(=O)O)cc2)cc1 | – | – | inactive
CN(COC(=O)C(C)(C)C)c1nc(N(C)COC(=O)C(C)(C)C)nc(N(C)COC(=O)C(C)(C)C)n1 | > 100 µM | 18.6 µM | –
COc1ccc(C2C3=CONC3CC3CCCCC32)cc1 (configuration not stated) | > 200 µM | 77.6 µM | –
CC(=C(C#N)C#N)c1ccc(F)cc1 | > 138 µM | 112 µM | –
CC1(C)C2C=CC1(C)C1(CC2)OCCO1 (configuration not stated) | > 200 µM | > 200 µM | –
C/C(CC(=O)Nc1ccc(C)c(C)c1)=N\NC(N)=S | > 891 µM | 117 µM | –
O=C(NNC(=S)Nc1ccccc1)c1ccccc1Nc1ccccc1C(=O)NNC(=S)Nc1ccccc1 | > 30.9 µM | 30.2 µM | –
COc1cc(N=Nc2ccc(C(=O)N(C)C)cc2)c(C)cc1N=Nc1c(O)c2ccccc2[nH]c1=O | > 200 µM | > 200 µM | –
Cc1c2ncccc2cc2oc3ccccc3c(=O)c12 | > 200 µM | 10 µM | –
CCC1S(=O)(=O)OCCOS1(=O)=O | > 1070 µM | 64.6 µM | –
CCOC(=O)CC(C#N)(CC(=O)OCC)C(=O)OCC | – | – | inactive
Fc1cccc2c(SCc3ccc(Cl)cc3Cl)cnnc12 | > 15.5 µM | > 15.5 µM | –
COc1cc(Nc2cnc3ccc(C(F)(F)F)cc3n2)cc(OC)c1OC | > 35.5 µM | 6.92 µM | –

SMILES | EC50 | IC50 | outcome
CC/C=C\C/C=C\C/C=C\CCCCCCCC(=O)NC(CCC(N)=O)C(=O)O (configuration not stated) | > 200 µM | 43.7 µM | –
C=C1[C@H]2C[C@H]3[C@@H]4N5C[C@]6(C)CCCC47C6[C@@]5(O)CC3([C@@H]1O)[C@H]7[C@H]2O | – | – | inactive
COc1ccc(N=N/C(=N/NC(=O)c2cc(Cl)ccc2C(=O)c2ccccc2)c2ccc(N(CCC#N)CCC#N)cc2C)cc1 | > 100 µM | 14.1 µM | –
CCC1OC(=O)CC(O)C(C)C(OC2OC(C)CC(N(C)C)C2O)C(CC=O)CC(C)C(=O)/C=C/C2(C)OC2C1C (configuration not stated) | > 200 µM | 33.9 µM | –
CC(C)CC(N)C(=O)NC(CC(=O)O)C(=O)NC(CCCCN)C(=O)NC(C)C(=O)NC(CO)C(=O)NC(Cc1ccc(O)cc1)C(=O)NC(CO)C(=O)NC(C(=O)NC(CC(N)=O)C(=O)NC(Cc1cnc[nH]1)C(=O)O)C(C)O (configuration not stated) (H-LDKASYSTNH-OH; configuration not given here) | > 21.9 µM | > 21.9 µM | –
CC(=O)OCC(OC(C)=O)C(OC(C)=O)C1OC(Oc2ccccc2)C(OC(C)=O)C1OC(C)=O (configuration not stated) | > 200 µM | > 200 µM | –
CCc1c2c([nH]c(=S)c1C#N)CCC2 | 61.7 µM | > 200 µM | –
CC(=Nc1ccccc1C(=O)[O-])c1c([O-])ccc2c(C)cc(=O)oc12.[Co+2].[OH3+].[OH3+].[OH3+] | > 3.24 µM | > 3.24 µM | –
[Cu+2].[O-]/C(=N\N=C/c1cccc(F)c1)c1ccncc1.[O-]/C(=N\N=C\c1cccc(F)c1)c1ccncc1 | > 100 µM | 24.5 µM | –
O=C(Nc1cccc(Cl)c1)Nc1ccc[nH]c1=O | > 490 µM | 25.1 µM | –
CC1=CC(C)C(=O)N(C)C(C)=C1 (configuration not stated) | > 1510 µM | 457 µM | –
CCOC(C)OC1CC(n2cc(C)c(=O)[nH]c2=O)OC1CO (configuration not stated) | > 14.8 µM | 13.2 µM | –
N#C/C(=C\c1ccc(O)c(O)c1)C(=O)Nc1ccc(C(=O)O)cc1 | > 200 µM | 38.9 µM | –
C(=Nc1cnc2ccccc2c1)c1ccccn1 | > 407 µM | 102 µM | –
COP1(=O)Oc2ccccc2C(=O)C(C(F)(F)F)(C(F)(F)F)O1 (configuration not stated) | > 692 µM | 295 µM | –
O=C(c1ccccc1)N1C/C(=N\Nc2ccc(Cl)cc2)c2c([nH]c3ccccc23)C1 | > 9.12 µM | > 9.12 µM | –
COC(=O)Nc1nc2ccc(C(=O)c3ccc(F)cc3)cc2[nH]1 | > 2 µM | 0.0871 µM | –
[N-]=[N+]=Nc1ccc(SSCCC(=O)ON2C(=O)CCC2=O)cc1 | > 200 µM | 7.59 µM | –
O=c1[nH]c2cc(Cl)ccc2nc1/C(=N\Nc1ccccc1)C(O)c1ccc(Cl)c(Cl)c1 (configuration not stated) | > 219 µM | 18.2 µM | –
O=C1NC(=O)C2(CCN(Cc3ccccc3)CC2)N1c1ccccc1 | > 200 µM | > 200 µM | –
C/C=C(\N=C=S)C(=O)OC1C(COC(C)=O)OC([C@]2(O)CC(=O)C(=N)C(C(=O)O)=C2O)C(O)C1OC1CC(OC)C(O)([C@@H](C)OC(=O)[C@@H](C)CC)C(C)O1 (some centres not stated) | – | – | inactive
Cc1nc2sc3c(c2c(=O)o1)CCCC3 | > 200 µM | 33.1 µM | –

SMILES | EC50 | IC50 | outcome
COC(=S)SSC(=S)NCCN(CCNC(=S)SSC(=S)OC)C(=S)SSC(=S)OC | > 257 µM | 209 µM | –
C=C[C@]1(C)CC(O)C2C(=C)C(=O)OC2[C@H]1C(=C)C=O (some centres not stated) | > 200 µM | 3.31 µM | –
Nn1c(Cc2ccc(Cl)cc2)n[nH]c1=O | > 200 µM | > 200 µM | –
CC(C)(C)n1c(=O)n2c(-c3ccccc3)c(-c3ccccc3)n2c1=O | > 200 µM | 25.7 µM | –
COc1cc2ccc(C(=O)O)cc2cc1OC | – | – | inactive
CCN(CC)CCC(=O)c1ccc(Oc2ccc(C)cc2)cc1 | > 200 µM | 28.8 µM | –
COc1ccc([C@@H]2C[C@@H]3C(=O)OC(=O)[C@@H]3c3c2c2ccccc2n3C)cc1 | > 52.5 µM | > 52.5 µM | –
CC(C)(C)N=C1CC(C)(C)c2ccccc2C(=Nc2ccccc2)S1 | – | – | inactive
CC(C)=CCc1cc2c(cc1O)OC[C@H]1c3cc4c(cc3O[C@@H]21)OCO4 | > 53.7 µM | 2.09 µM | –
Cc1ccc(S(=O)(=O)/N=C(\N)N(C)N=O)cc1 | > 200 µM | 63.1 µM | –
Nc1sc(=S)nc2sc(Nc3ccccc3)nc12 | > 427 µM | > 427 µM | –
CSc1nc2nccnc2c(=O)[nH]1 | > 1290 µM | > 1290 µM | –
Cc1cc(S(=O)(=O)Nc2nc(N)n(C)n2)c(S)cc1Cl | > 200 µM | > 200 µM | –
O=C1CCCN(Cc2ccccc2)C(=O)N1 | > 1150 µM | > 1150 µM | –
COc1nc(C)nc2c1ncn2Cc1ccccc1 | > 200 µM | > 200 µM | –
O=C(/C=C/c1cc(F)ccc1F)OCCc1ccccc1 | – | 141 µM | inactive
O=C(Nc1nccs1)c1c(O)nc2sccn2c1=O | > 200 µM | > 200 µM | –
COc1ccc(C2CC(=O)CC(c3ccc(OC)cc3)C23C(=O)NC(=O)NC3=O)cc1 (configuration not stated) | > 100 µM | 40.7 µM | –
COc1ccc(-c2cc(-c3ccccc3)[nH]c(=O)c2N(C)C)cc1 | > 58.9 µM | > 58.9 µM | –
